pIC50: −log10 of the molar value.

In the assay the target is T1, FAAH (Rattus norvegicus, UniProt P97612).
T1 construct: Preparation of Rat Brain Membranes Preparations (FAAH Enzyme Solution); from tissue; host or cells: rat cerebrum (brain membrane preparation)
T1 sequence (P97612 1-579): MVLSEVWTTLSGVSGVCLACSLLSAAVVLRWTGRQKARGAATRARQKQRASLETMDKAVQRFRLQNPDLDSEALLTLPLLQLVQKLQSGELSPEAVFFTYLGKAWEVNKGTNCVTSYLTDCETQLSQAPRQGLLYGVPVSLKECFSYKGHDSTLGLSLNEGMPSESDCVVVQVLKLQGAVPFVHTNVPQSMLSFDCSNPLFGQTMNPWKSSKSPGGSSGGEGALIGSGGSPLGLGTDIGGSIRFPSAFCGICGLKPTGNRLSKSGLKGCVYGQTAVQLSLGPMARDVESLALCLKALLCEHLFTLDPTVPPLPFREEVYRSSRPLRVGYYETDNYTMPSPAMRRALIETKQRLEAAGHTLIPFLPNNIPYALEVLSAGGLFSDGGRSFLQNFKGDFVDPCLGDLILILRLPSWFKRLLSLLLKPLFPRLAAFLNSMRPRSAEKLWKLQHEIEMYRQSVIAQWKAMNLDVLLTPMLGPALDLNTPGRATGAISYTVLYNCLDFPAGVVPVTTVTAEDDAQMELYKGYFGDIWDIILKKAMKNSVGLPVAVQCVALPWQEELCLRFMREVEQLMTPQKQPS
In words: Determination of FAAH inhibitory activity in rat (rat brain membrane preparations, [3H]-anandamide hydrolysis). It is filed as biochemical. The following applies: rat brain membrane preparations; for inhibition at 0.1 µM: 100 nM test substance, read-out: FAAH Inhibition, Inhibition Rate at 100 nM; for pIC50: test substance 0.1 nM to 1 μM, read-out: FAAH Inhibition IC50. In a few lines: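 Compounds tested from 0.1 nM to 1 μM to derive IC50 against FAAH hydrolysis in rat brain membrane preparations (100 μg/mL). A 10-min 37 °C preincubation was followed by 10 min with [3H]-anandamide (2 nM) mixed with 2 μM unlabelled anandamide. Radioactive ethanolamine was extracted into the water/methanol layer and counted.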

For the compound `CCCc1ncc2c(n1)n(C)c(=O)n2C(=O)N(C)CCc1ccc(Cl)cc1` [Example 154, N-[2-(4-Chlorophenyl)ethyl]-N,9-dimethyl-8-oxo-2-propyl-8,9-dihydro-7H-purine-7-carboxamide], the inhibition at 0.1 µM was 101% and the pIC50 is 8.70.

With `CCCCc1ncc2c(n1)n(C)c(=O)n2C(=O)N(C)CCc1ccc(Cl)cc1` [Example 155, 2-Butyl-N-[2-(4-chlorophenyl)ethyl]-N,9-dimethyl-8-oxo-8,9-dihydro-7H-purine-7-carboxamide], the inhibition at 0.1 µM was 102% and the pIC50 was 8.40.

On to `CN(CCc1ccc(Cl)cc1)C(=O)n1c(=O)n(C)c2nc(C3CCCCC3)ncc21` [Example 156, N-[2-(4-Chlorophenyl)ethyl]-2-cyclohexyl-N,9-dimethyl-8-oxo-8,9-dihydro-7H-purine-7-carboxamide], for which the inhibition at 0.1 µM came out at 96% and the pIC50 is 8.00.

Consider `Cc1ncc2c(n1)n(C)c(=O)n2C(=O)N(C)CCc1ccc(Cl)cc1` [Example 157, N-[2-(4-Chlorophenyl)ethyl]-N,2,9-trimethyl-8-oxo-8,9-dihydro-7H-purine-7-carboxamide], for which the inhibition at 0.1 µM turned out to be 103% and the pIC50 is > 8.00.

For `CN(CCc1ccc(Cl)cc1)C(=O)n1c(=O)n(C)c2nc(Cc3ccccc3)ncc21` [Example 158, 2-Benzyl-N-[2-(4-chlorophenyl)ethyl]-N,9-dimethyl-8-oxo-8,9-dihydro-7H-purine-7-carboxamide], the inhibition at 0.1 µM came to 102% and the pIC50 is > 9.00.

In the case of `CCN(C)C(=O)n1c(=O)n(C)c2nc(C3CC3)ncc21` [Example 159], the inhibition at 0.1 µM stood at 61% and the pIC50 was 7.09.

As to `CCN(C)C(=O)n1c(=O)n(C)c2nc(CC(C)(C)C)ncc21` [Example 160, 2-(2,2-Dimethylpropyl)-N-ethyl-N,9-dimethyl-8-oxo-8,9-dihydro-7H-purine-7-carboxamide], the inhibition at 0.1 µM turned out to be 98% and the pIC50 is 7.85.

On to `CCCCc1ncc2c(n1)n(C)c(=O)n2C(=O)N(C)CC` [Example 161, 2-Butyl-N-ethyl-N,9-dimethyl-8-oxo-8,9-dihydro-7H-purine-7-carboxamide], for which the inhibition at 0.1 µM was 93% and the pIC50 is 7.72.

Take `CCN(C)C(=O)n1c(=O)n(C)c2nc(C3CCCCC3)ncc21` [Example 162, 2-Cyclohexyl-N-ethyl-N,9-dimethyl-8-oxo-8,9-dihydro-7H-purine-7-carboxamide]: the inhibition at 0.1 µM amounted to 72% and the pIC50 is 7.42.

Regarding `CCN(C)C(=O)n1c(=O)n(C)c2nc(C)ncc21` [Example 163], the inhibition at 0.1 µM stood at 27% and the pIC50 is < 7.00.

Regarding `Cn1c(=O)n(C(=O)N2CCC2)c2nc(CCc3cccc(F)c3)ncc21` [Example 164, 9-(Azetidin-1-ylcarbonyl)-2-[2-(3-fluorophenyl)ethyl]-7-methyl-7,9-dihydro-8H-purine-8-one], the inhibition at 0.1 µM was determined as 98% and the pIC50 was 8.30.

As for `CN(C)C(=O)n1c(=O)n(C)c2cnc(CCc3cccc(F)c3)nc21` [Example 165, 2-[2-(3-Fluorophenyl)ethyl]-N,N,7-trimethyl-8-oxo-7,8-dihydro-9H-purine-9-carboxamide], the inhibition at 0.1 µM is 103% and the negative-log IC50 (pIC50) was 8.40.

With `Cn1c(=O)n(C(=O)N2CCCC2)c2cnc(-c3ccccc3F)nc21` [Example 166, 2-(2-fluorophenyl)-9-methyl-7-(pyrrolidin-1-ylcarbonyl)-7,9-dihydro-8H-purine-8-one], the inhibition at 0.1 µM was determined as 99% and the pIC50 is 7.62.

For the compound `Cn1c(=O)n(C(=O)N2CCCC2)c2cnc(-c3cccc(F)c3)nc21` [Example 167, 2-(3-Fluorophenyl)-9-methyl-7-(pyrrolidin-1-ylcarbonyl)-7,9-dihydro-8H-purine-8-one], the inhibition at 0.1 µM stood at 101% and the pIC50 was 8.22.

Consider `Cn1c(=O)n(C(=O)N2CCCC2)c2cnc(-c3ccc(F)cc3)nc21` [Example 168, 2-(4-Fluorophenyl)-9-methyl-7-(pyrrolidin-1-ylcarbonyl)-7,9-dihydro-8H-purine-8-one], for which the inhibition at 0.1 µM was found to be 100% and the pIC50 was 8.22.

In the case of `Cc1cccc(-c2ncc3c(n2)n(C)c(=O)n3C(=O)N2CCCC2)c1` [Example 170, 9-Methyl-2-(3-methylphenyl)-7-(pyrrolidin-1-ylcarbonyl)-7,9-dihydro-8H-purine-8-one], the inhibition at 0.1 µM worked out at 98% and the pIC50 was 8.15.

For the compound `Cc1ccc(-c2ncc3c(n2)n(C)c(=O)n3C(=O)N2CCCC2)cc1` [Example 171, 9-Methyl-2-(4-methylphenyl)-7-(pyrrolidin-1-ylcarbonyl)-7,9-dihydro-8H-purine-8-one], the inhibition at 0.1 µM stood at 102% and the negative logarithm of the IC50 (pIC50) was 7.72.

Consider `COc1cccc(-c2ncc3c(n2)n(C)c(=O)n3C(=O)N2CCCC2)c1` [Example 173, 2-(3-Methoxyphenyl)-9-methyl-7-(pyrrolidin-1-ylcarbonyl)-7,9-dihydro-8H-purine-8-one], for which the inhibition at 0.1 µM turned out to be 101% and the pIC50 is 8.15.

Consider `CN(C)c1ccc(-c2ncc3c(n2)n(C)c(=O)n3C(=O)N2CCCC2)cc1` [Example 182, 2-[4-(Dimethylamino)phenyl]-9-methyl-7-(pyrrolidin-1-ylcarbonyl)-7,9-dihydro-8H-purine-8-one], for which the inhibition at 0.1 µM was 100% and the pIC50 is 7.55.

Take `CSc1ccc(-c2ncc3c(n2)n(C)c(=O)n3C(=O)N2CCCC2)cc1` [Example 183, 9-Methyl-2-[4-(methylsulfanyl)phenyl]-7-(pyrrolidin-1-ylcarbonyl)-7,9-dihydro-8H-purine-8-one]: the inhibition at 0.1 µM is 101% and the pIC50 was 8.52.

Regarding `Cn1c(=O)n(C(=O)N2CCCC2)c2cnc(-c3cccc(F)c3F)nc21` [Example 187, 2-(2,3-Difluorophenyl)-9-methyl-7-(pyrrolidin-1-ylcarbonyl)-7,9-dihydro-8H-purine-8-one], the inhibition at 0.1 µM is 100% and the pIC50 was 8.15.

As for `Cn1c(=O)n(C(=O)N2CCCC2)c2cnc(-c3cc(F)ccc3F)nc21` [Example 189, 2-(2,5-Difluorophenyl)-9-methyl-7-(pyrrolidin-1-ylcarbonyl)-7,9-dihydro-8H-purine-8-one], the inhibition at 0.1 µM was determined as 100% and the pIC50 was 8.15.

For `COc1cccc(-c2ncc3c(n2)n(C)c(=O)n3C(=O)N2CCCC2)c1F` [Example 196, 2-(2-Fluoro-3-methoxyphenyl)-9-methyl-7-(pyrrolidin-1-ylcarbonyl)-7,9-dihydro-8H-purine-8-one], the inhibition at 0.1 µM turned out to be 101% and the pIC50 is 7.64.

For the compound `COc1ccc(F)c(-c2ncc3c(n2)n(C)c(=O)n3C(=O)N2CCCC2)c1` [Example 200, 2-(2-Fluoro-5-methoxyphenyl)-9-methyl-7-(pyrrolidin-1-ylcarbonyl)-7,9-dihydro-8H-purine-8-one], the inhibition at 0.1 µM stood at 97% and the pIC50 was 7.52.

On to `Cc1cc(F)cc(-c2ncc3c(n2)n(C)c(=O)n3C(=O)N2CCCC2)c1` [Example 201, 2-(3-Fluoro-5-methylphenyl)-9-methyl-7-(pyrrolidin-1-ylcarbonyl)-7,9-dihydro-8H-purine-8-one], for which the inhibition at 0.1 µM came to 99% and the negative-log IC50 (pIC50) is 7.59.
